Source: patent publication US12195437B2, “Lipophenolic flavonoid derivatives useful to reduce carbonyl and oxidative stresses (COS)” (Centre National de la Recherche Scientifique (CNRS), priority 2018, dated 2025)

What was measured:
Format in all cases: cell-based
[1] = test system: ARPE-19 cells; test: Protection of lipophenols against all-trans-retinal toxicity (anti-carbonyl stress activity, MTT); conditions: trans-retinal 15 μM; for cell survival gain (anti-carbonyl stress activity): compared to stressed untreated cells; for anti-carbonyl stress activity (in words): up to 80 μM lipophenol
Procedure: (§1) ARPE-19 cells (cells from the retinal pigment epithelium) were obtained from ATCC, and were grown following the instructions in Dulbecco's Modified Eagle's Medium (DMEM)/Ham F12 (GIBCO) containing 10% v/v fetal bovine serum (FBS) and 1% v/v penicillin/streptomycin under a humidified air (95%)/CO2 (5%) atmosphere at 37° C. For experimental cell seeding and sub-culturing, cells were dissociated with 0.25% trypsin-EDTA, re-suspended in the culture medium and then plated at 1-3×10^5 cells/mL.
(§2) Cell viability was determined by MTT colorimetric assay. Cells were incubated for 2 h with MTT reagent (0.5 mg/mL). During this incubation time, dehydrogenases of living cells reduced MTT to insoluble purple formazan, which was then dissolved in DMSO. The absorbance at 570 nm and 655 nm of individual wells was measured using a microplate reader (BioRad 550). The percentage of viable cells was calculated as [(OD570 sample−OD655 sample)/(OD570 control−OD655 control)]×100%.
ARPE-19 cells were plated into 96-well plates (4×10^4 cells/well) and cultured for 24 h to reach confluence before lipophenol treatment. The cell cultures were treated with serum free medium containing lipophenols at different concentrations (0-80 μM) for 1 h. Then all-trans-retinal was added to a final concentration of 15 μM for 4 h, before rinsing with medium. Control cells were incubated with DMSO (0.2%)±all-trans-retinal. The cell viability was determined 16-20 h later using a MTT colorimetric assay. All samples are expressed as percentage of viability compared to non-treated and exposed to all-trans-retinal control cells. Non-treated and non-exposed to all-trans-retinal control cells are normalized at 100% survival.
The results on the measurement of anti-carbonyl stress activity will be discussed in % cell survival gain compared to cells stressed by trans-retinal (at 15 μM) and not treated with lipophenols. Any survival gain greater than +5% will be considered as a proven anti-carbonyl stress activity.

[2] = test system: ARPE-19 cells; test: Protection of lipophenols against ROS production (DCFDA probe, H2O2); conditions: H2O2 600 μM; for increase in ROS compared to non-stressed cells: from 20 μM lipophenol
Procedure: as §1
Reactive oxygen species (ROS) were measured in ARPE-19 cells with the probe DCFDA. The cell permeant reagent DCFDA is deacetylated by cellular esterases to […], which can be oxidized by ROS into the fluorophore 2′,7′-dichlorofluorescein (DCF). ARPE-19 cells were plated into black, opaque bottom 96-well plates (4×10^4 cells/well) and cultured for 24 h to reach confluence before drug treatment. The cell cultures were incubated with 2 μM of DCFDA for 45 min in DMEM/F12 medium without phenol red+1% FBS. The cells were rinsed and incubated with medium containing lipophenols at different concentrations (0-80 μM) for 1 h. Then H2O2 was added to a final concentration of 600 μM for 4 h, followed by the measurement of DCF production by fluorescence spectroscopy with excitation wavelength at 485 nm and emission wavelength at 535 nm. Control cells were incubated with DMSO (0.2%)±DCFDA±H2O2. All samples are expressed as percentage of ROS production compared to non-oxidized control cells (normalized at 100% of ROS production).
The lowest percentages of increase will therefore be representative of the most protective derivatives.

[3] = test system: ARPE-19 cells; test: Protection of lipophenols against photoactivated A2E toxicity (MTT); conditions: A2E 20 μM, blue light
Procedure: as §1, §2
ARPE-19 cells were plated into 96-well plates (4×10^4 cells/well) and cultured for 24 h to reach confluence before lipophenol treatment. The cell cultures were treated with serum free DMEM/F12 medium without phenol red containing lipophenols at different concentrations (0-80 μM) for 1 h. Then A2E was added to a final concentration of 20 μM for 6 h, before rinsing with medium. Control cells were incubated with DMSO (0.2%)+A2E. Cells were exposed to intense blue light (4600 LUX) for 30 min to induce phototoxicity of A2E and incubated at 37° C. The cell viability was determined 16-20 h later using a MTT colorimetric assay. All samples are expressed as percentage of viability compared to non-treated and exposed to A2E control cells. Non-treated and non-exposed to A2E control cells are normalized at 100% survival.
Photoactivation of A2E leads to its oxidation and can generate cytotoxic derivatives, in particular carbonyl derivatives responsible for carbonyl stress. Results on lipophenol protection against photoactivated A2E toxicity will be discussed in % cell survival gain compared to cells stressed by A2E and not treated by lipophenols. This additional evaluation was not performed for all synthesized lipophenolic derivatives but only a selection of them to discuss the results obtained.

[4] = test system: ARPE-19 cells; test: Cytotoxicity of lipophenols on ARPE-19 cells (MTT); conditions: 24 h; for toxicity (in words): concentrations up to 160 μM; for cell survival: compared to untreated cells (100%)
Procedure: as §2
(§3) ARPE-19 cells were plated into 96-well plates (4×10^4 cells/well) and cultured for 24 h to reach confluence before lipophenol treatment. […] Control cells were incubated with DMSO (0.2%). The viability of the cells was determined using a MTT colorimetric assay. All samples are expressed as percentage of viability compared to non-treated control cells (normalized at 100% survival).
(§4) Results on the measurement of lipophenol toxicity will be discussed in % cell survival at a given lipophenol concentration compared to untreated cells. […] Any concentration of lipophenol resulting in cell survival of less than 5% (zero survival) will be considered a highly toxic concentration.

[5] = Cytotoxicity of lipophenols on ARPE-19 cells (MTT); conditions: human, ARPE-19 cells (retinal pigment epithelium), tested 0-160 μM, read-out: CC50 (cytotoxic concentration 50)
Procedure: as §2, §3, §4

For `CCCCC/C=C\C/C=C\CCCCCCCC(=O)O[C@H]1Cc2c(OC(C)C)cc(O)cc2O[C@@H]1c1ccc(O)c(O)c1` [C-3LA-5OiP, (9Z,12Z)-(2R,3S)-2-(3,4-dihydroxyphenyl)-7-hydroxy-5-isopropoxy-chroman-3-yl octadeca-9,12-dienoate], the “cell survival gain (anti-carbonyl stress activity)” value ([1]; 80 μM lipophenol) was “+9%”, the “gain of % of ROS production compared to non-stressed cells” value (from here on “gain of % … to non-stressed cells”) ([2]; 80 μM lipophenol) was “+67%” and the “cell survival gain against photoactivated A2E” value ([3]; concentration not given) was “+30%”.

For `CCCCC/C=C\C/C=C\CCCCCCCC(=O)O[C@H]1Cc2c(O)cc(OC(C)C)cc2O[C@@H]1c1ccc(O)c(O)c1` [C-3LA-7OiP, (9Z,12Z)-(2R,3S)-2-(3,4-dihydroxyphenyl)-5-hydroxy-7-isopropoxy-chroman-3-yl octadeca-9,12-dienoate], the “cell survival gain (anti-carbonyl stress activity)” value ([1]; 40 μM lipophenol) was “+27%”, the “gain of % … to non-stressed cells” value ([2]; 80 μM lipophenol) was “+37%” and the “concentration from which cell survival is zero (highly toxic concentration)” value [4] was 80 µM.

For `CC(C)Oc1cc(O)cc2c1C[C@H](O)[C@@H](c1ccc(O)c(O)c1)O2` [C-50iP, reference compound], the “anti-carbonyl stress activity (in words)” value [1] was “no anti-carbonyl stress activity”, the “increase in ROS compared to non-stressed cells” value (“increase … to non-stressed cells” below) [2] was 0% and the “toxicity (in words)” value [4] was “no toxicity”.

For `CC(C)Oc1cc(O)c2c(c1)O[C@H](c1ccc(O)c(O)c1)[C@@H](O)C2` [C-70iP, reference compound], the “anti-carbonyl stress activity (in words)” value [1] was “no anti-carbonyl stress activity”, the “increase … to non-stressed cells” value [2] was 0% and the “toxicity (in words)” value [4] was “no toxicity”.

For `CC/C=C\C/C=C\C/C=C\CCCCCCCC(=O)Oc1c(-c2ccc(O)c(O)c2)oc2cc(O)cc(OC(C)C)c2c1=O` [Q-3ALA-5OiP, (9Z,12Z,15Z)-7-hydroxy-2-(3,4-dihydroxyphenyl)-5-isopropoxy-4-oxo-4H-chromen-3-yl octadeca-9,12,15-trienoate], the “cell survival gain (anti-carbonyl stress activity)” value ([1]; 40 μM lipophenol) was “+24%” and the “concentration from which cytotoxicity is induced” value [4] was 60 µM.

With `CC/C=C\C/C=C\C/C=C\CCCCCCCC(=O)Oc1c(-c2ccc(O)c(O)c2)oc2cc(OC(C)C)cc(O)c2c1=O` [Q-3ALA-7OiP, (9Z,12Z,15Z)-5-hydroxy-2-(3,4-dihydroxyphenyl)-7-isopropoxy-4-oxo-4H-chromen-3-yl octadeca-9,12,15-trienoate] the “cell survival gain (anti-carbonyl stress activity)” value ([1]; 80 μM lipophenol) was “+29%”, the “toxicity (in words)” value [4] was “no toxicity” and the “cell survival gain against photoactivated A2E” value ([3]; 80 μM lipophenol, compared to stressed untreated cells) was “+77%”.

In the case of `CC/C=C\C/C=C\C/C=C\C/C=C\C/C=C\C/C=C\CCC(=O)Oc1c(-c2ccc(O)c(O)c2)oc2cc(O)cc(O)c2c1=O` [Q-3DHA, (4Z,7Z,10Z,13Z,16Z,19Z)-2-(3,4-dihydroxyphenyl)-5,7-dihydroxy-4-oxo-4H-chromen-3-yl docosa-4,7,10,13,16,19-hexaenoate], the “cell survival gain, maximum protection” value ([1]; 60 μM lipophenol) is reported as “+21%” and the CC50 at 24 h [5] is reported as < 160 µM.

For `CC/C=C\C/C=C\C/C=C\C/C=C\C/C=C\C/C=C\CCC(=O)Oc1c(-c2ccc(O)c(O)c2)oc2cc(O)cc(OC(C)C)c2c1=O` [Q-3DHA-5OiP, (4Z,7Z,10Z,13Z,16Z,19Z)-7-hydroxy-2-(3,4-dihydroxyphenyl)-5-isopropoxy-4-oxo-4H-chromen-3-yl docosa-4,7,10,13,16,19-hexaenoate], the “cell survival gain (anti-carbonyl stress activity)” value ([1]; 40 μM lipophenol) was “+27%”, the “concentration from which cytotoxicity is induced” value [4] was 60 µM and the CC50 at 24 h [5] was > 40 µM.

In the case of `CC/C=C\C/C=C\C/C=C\C/C=C\C/C=C\C/C=C\CCC(=O)Oc1c(-c2ccc(O)c(O)c2)oc2cc(OC(C)C)cc(O)c2c1=O` [Q-3DHA-7OiP, (4Z,7Z,10Z,13Z,16Z,19Z)-5-hydroxy-2-(3,4-dihydroxyphenyl)-7-isopropoxy-4-oxo-4H-chromen-3-yl docosa-4,7,10,13,16,19-hexaenoate], the “cell survival gain (anti-carbonyl stress activity)” value ([1]; 80 μM lipophenol) is reported as “+29%”, the “toxicity (in words)” value [4] is reported as “no toxicity” and the “cell survival gain against photoactivated A2E” value ([3]; as early as 20 μM lipophenol (plateau)) is reported as “+62%”.

In the case of `CCCCC/C=C\C/C=C\CCCCCCCC(=O)Oc1c(-c2ccc(O)c(O)c2)oc2cc(O)cc(O)c2c1=O` [Q-3LA, (9Z,12Z)-2-(3,4-dihydroxyphenyl)-5,7-dihydroxy-4-oxo-4H-chromen-3-yl octadeca-9,12-dienoate], the “cell survival gain, maximum protection” value ([1]; 20 μM lipophenol) is reported as “+9%”, the cell survival ([4]; 80 μM lipophenol) is reported as 156% and the cell survival ([4]; 160 μM lipophenol) is reported as 124%. The “cell survival gain against photoactivated A2E” value ([3]; from 60 μM lipophenol) was “+48%”.

For `CCCCC/C=C\C/C=C\CCCCCCCC(=O)Oc1c(-c2ccc(O)c(O)c2)oc2cc(O)cc(OC(C)C)c2c1=O` [Q-3LA-5OiP, (9Z,12Z)-7-hydroxy-2-(3,4-dihydroxyphenyl)-5-isopropoxy-4-oxo-4H-chromen-3-yl octadeca-9,12-dienoate], the “cell survival gain (anti-carbonyl stress activity)” value ([1]; 40 μM lipophenol) was “+34%”, the “cell survival gain (anti-carbonyl stress activity)” value ([1]; 80 μM lipophenol) was “+49%” and the CC50 at 24 h [5] was < 80 µM.

In the case of `CCCCC/C=C\C/C=C\CCCCCCCC(=O)Oc1c(-c2ccc(O)c(O)c2)oc2cc(OC(C)C)cc(O)c2c1=O` [Q-3LA-7OiP, (9Z,12Z)-5-hydroxy-2-(3,4-dihydroxyphenyl)-7-isopropoxy-4-oxo-4H-chromen-3-yl octadeca-9,12-dienoate], the “cell survival gain (anti-carbonyl stress activity)” value ([1]; 80 μM lipophenol) is reported as “+38%”, the cell survival ([4]; 160 μM lipophenol) is reported as 153% and the “cell survival gain against photoactivated A2E” value ([3]; from 40 μM lipophenol (plateau)) is reported as “+86%”.

In the case of `CC(C)Oc1cc(O)cc2oc(-c3ccc(O)c(O)c3)c(O)c(=O)c12` [Q-50iP, reference compound], the “anti-carbonyl stress activity (in words)” value [1] is reported as “did not show anti-carbonyl stress potency”, the “gain of % … to non-stressed cells” value ([2]; 80 μM lipophenol) is reported as “+46%” and the cell survival ([4]; 160 μM lipophenol) is reported as 72%. The “toxicity (in words)” value [4] was “almost no toxicity”.

With `CC(C)Oc1cc(O)c2c(=O)c(O)c(-c3ccc(O)c(O)c3)oc2c1` [Q-70iP, reference compound] the “anti-carbonyl stress activity (in words)” value [1] was “did not show anti-carbonyl stress potency”, the “gain of % … to non-stressed cells” value ([2]; 20 μM lipophenol) was “+31%” and the “concentration from which cell survival is zero (highly toxic concentration)” value [4] was 40 µM. The “toxicity (in words)” value [4] was “very important cytotoxicity even at low concentration”.

With `Oc1cc(O)cc(O)c1` [phloroglucinol, reference compound] the “anti-carbonyl stress activity (in words)” value [1] was “no survival gain”, the “gain of % … to non-stressed cells” value ([2]; 80 μM lipophenol) was “+50%” and the cell survival ([4]; 160 μM lipophenol) was 61%. The “protection against photoactivated A2E (in words)” value ([3]; up to 80 μM lipophenol) was “no cell protection”.

In the case of (+)-catechin [reference compound], the “anti-carbonyl stress activity (in words)” value [1] is reported as “no anti-carbonyl stress activity” and the “increase … to non-stressed cells” value [2] is reported as 0%.
